Molecules are shown by their SMILES.

By melting point is commonly meant the temperature, or range, at which the solid turns liquid.

One data set deals with Plasmopara viticola. The following applies: 20 ppm of the active substance, vines.
The next data set concerns Phytophthora infestans. The class given is in vivo. The following applies: 20 ppm of the active substance; test a) or b) not distinguished.

In the case of `CCCCOc1ccc(C(=NOC)C(C)=NOCc2ccccc2C(=COC)C(=O)OC)c(F)c1` (single isomer, unassigned) [Compound 1.71B], the curative action result in the data set with Plasmopara viticola is on record as “complete curative action”. Consider `CCO/N=C(/C(C)=NOCc1ccccc1C(=NOC)C(=O)OC)c1ccc(OCc2cccc(C(F)(F)F)c2)cc1`, for which the melting point is 68 to 70 °C. Regarding `CCCOc1ccc(C(=NOC)C(C)=NOCc2ccccc2C(=COC)C(=O)OC)c(F)c1` (single isomer, unassigned) [Compound 1.63B], the curative action entry with Plasmopara viticola is “complete curative action”. Take `CCC(C)Oc1ccc(C(=NOC)C(C)=NOCc2ccccc2C(=COC)C(=O)OC)cc1` (single isomer, unassigned) [Compound 1.29]: in the data set with Plasmopara viticola, the curative action entry was “complete curative action”. For the compound `CON=C(C(C)=NOCc1ccccc1C(=NOC)C(=O)OC)c1ccc(OC[Si](C)(C)C)cc1` [Compound 2.33], the curative action entry in the data set on Plasmopara viticola is “complete curative action”. As to `COC=C(C(=O)OC)c1ccccc1CON=C(C)C(=NOC)c1ccc(OCC(C)C)cc1` [Compound 1.31, {2-[2-(4-Isobutoxy-phenyl)-2-methoxyimino-1-methyl-ethylideneaminooxymethyl]-phenyl}-3-methoxy-acrylic acid methyl ester], the curative action result in the data set with Plasmopara viticola is listed as “complete curative action”. Further, the suppression of infestation result in the data set with Phytophthora infestans is on record as “completely suppressed”. For `CCCON=C(C(C)=NOCc1ccccc1C(=COC)C(=O)OC)c1ccc(OCCC)cc1` [Compound 4.60], in that order: “complete curative action” and “completely suppressed”.

Turning to `CCCOc1ccc(C(=NOC)C(C)=NOCc2ccccc2C(=NOC)C(=O)OC)c(F)c1` [Compound 2.45, 2-Methoxyimino-(2-{2-methoxyimino-1-methyl-2-[2-fluoro-4-n-propoxy-phenyl]-ethylideneaminooxymethyl}-phenyl)-acetic acid methyl ester], the curative action entry with Plasmopara viticola is reported as “complete curative action”. As to `COC=C(C(=O)OC)c1ccccc1CON=C(C)C(=NOC)c1ccc(OC(C)C)cc1F` (single isomer, unassigned) [Compound 1.73A], the curative action entry in the data set on Plasmopara viticola was “complete curative action”. On to `CCC(C)Oc1ccc(C(=NOC)C(C)=NOCc2ccccc2C(=COC)C(=O)OC)c(F)c1` (single isomer, unassigned) [Compound 1.75A], for which the suppression of infestation entry in the data set on Phytophthora infestans is “completely suppressed”.

With `CCOc1ccc(C(=NOC)C(C)=NOCc2ccccc2C(=NOC)C(=O)NC)c(C)c1` [Compound 3.60, 2-Methoxyimino-2-(2-{2-methoxyimino-1-methyl-2-[4-ethoxy-2-methyl-phenyl]-ethylideneaminooxymethyl}-phenyl)-N-methyl-acetamide], the suppression of infestation entry in the data set on Phytophthora infestans is “completely suppressed”. `CCCOc1ccc(C(=NOC)C(C)=NOCc2ccccc2C(=NOC)C(=O)NC)c(F)c1` [Compound 3.46, 2-Methoxyimino-2-(2-{2-methoxyimino-1-methyl-2-[2-fluoro-4-n-propoxy-phenyl]-ethylideneaminooxymethyl}-phenyl)-N-methyl-acetamide]: in the data set on Plasmopara viticola, the curative action result is reported as “complete curative action”.

Turning to `CON=C(C(C)=NOCc1ccccc1C(=NOC)C(=O)OC)c1ccc(Oc2ccc(C)cc2)cc1` [Compound 2.27], the curative action result with Plasmopara viticola is given as “complete curative action”. Moreover, the suppression of infestation result in the data set with Phytophthora infestans was “completely suppressed”. For the compound `CCC(C)Oc1ccc(C(=NOC)C(C)=NOCc2ccccc2C(=NOC)C(=O)OC)cc1` (stereo not drawn) [Compound 2.21], the curative action entry in the data set with Plasmopara viticola is given as “complete curative action”. On to `CCOc1ccc(C(=NOC)C(C)=NOCc2ccccc2C(=NOC)C(=O)OC)c(F)c1` [Compound 2.49, 2-Methoxyimino-(2-{2-methoxyimino-1-methyl-2-[2-fluoro-4-ethoxy-phenyl]-ethylideneaminooxymethyl}-phenyl)-acetic acid methyl ester], for which the curative action result with Plasmopara viticola is recorded as “complete curative action”. Consider `CON=C(C(C)=NOCc1ccccc1C(=NOC)C(=O)OC)c1cccc(Oc2cccc(F)c2)c1` [Compound 2.32], for which, in the data set with Phytophthora infestans, the suppression of infestation result is “completely suppressed”. Consider `CON=C(C(C)=NOCc1ccccc1C(=NOC)C(=O)OC)c1ccc(OCC(C)C)cc1` [Compound 2.22], for which, in the data set with Plasmopara viticola, the curative action result is “complete curative action”.

As to `CON=C(C(C)=NOCc1ccccc1C(=NOC)C(=O)OC)c1ccc(OC)cc1C` [Compound 2.58], the curative action result with Plasmopara viticola was “complete curative action”. In addition, in the data set with Phytophthora infestans, the suppression of infestation result is “completely suppressed”. For the compound `COC=C(C(=O)OC)c1ccccc1CON=C(C)C(=NOC)c1ccc(OC(C)C)cc1F` (single isomer, unassigned) [Compound 1.73B], in the data set with Plasmopara viticola, the curative action result was “complete curative action”. On the same count and under the same terms, the value for `CON=C(C(C)=NOCc1ccccc1C(=NOC)C(=O)OC)c1ccc(Oc2cccc(Br)c2)cc1` [Compound 2.25] was “complete curative action”.

On to `CCC(C)Oc1ccc(C(=NOC)C(C)=NOCc2ccccc2C(=NOC)C(=O)NC)cc1` (stereo not drawn) [Compound 3.21], for which, in the data set with Plasmopara viticola, the curative action result is “complete curative action”. On to `COC=C(C(=O)OC)c1ccccc1CON=C(C)C(=NOC)c1ccc(OCC2CC2(Cl)Cl)c(F)c1` (single isomer, unassigned) [Compound 1.4], for which the curative action entry in the data set with Plasmopara viticola is recorded as “complete curative action”. Also, the suppression of infestation entry in the data set with Phytophthora infestans is given as “completely suppressed”. In the case of `COC=C(C(=O)OC)c1ccccc1CON=C(C)C(=NOC)c1cc(F)ccc1C` (single isomer, unassigned) [Compound 1.52], the curative action entry with Plasmopara viticola is on record as “complete curative action”. For the compound `COC=C(C(=O)OC)c1ccccc1CON=C(C)C(=NOC)c1ccc(OCC2CC2(Cl)Cl)c(Cl)c1` (single isomer, unassigned) [Compound 1.19], in the data set with Phytophthora infestans, the suppression of infestation entry is “completely suppressed”. On to `CCC(C)Oc1ccc(C(=NOC)C(C)=NOCc2ccccc2C(=NOC)C(=O)OC)c(F)c1` (stereo not drawn) [Compound 2.55], for which, in the data set with Plasmopara viticola, the curative action entry is reported as “complete curative action”. The suppression of infestation result with Phytophthora infestans was “completely suppressed”. Regarding `CCCOc1ccc(C(=NOCC)C(C)=NOCc2ccccc2C(=COC)C(=O)OC)cc1` [Compound 4.57], the curative action result with Plasmopara viticola was “complete curative action”. The suppression of infestation result in the data set with Phytophthora infestans is reported as “completely suppressed”. `CCC(C)Oc1ccc(C(=NOC)C(C)=NOCc2ccccc2C(=COC)C(=O)OC)cc1` (single isomer, unassigned) [Compound 1.30]: the curative action result in the data set with Plasmopara viticola is “complete curative action”. Besides, the suppression of infestation entry in the data set on Phytophthora infestans was “completely suppressed”. Take `CCC(C)Oc1ccc(C(=NOC)C(C)=NOCc2ccccc2C(=NOC)C(=O)NC)c(F)c1` (stereo not drawn) [Compound 3.56]: the curative action result in the data set on Plasmopara viticola is “complete curative action”. Also, in the data set on Phytophthora infestans, the suppression of infestation entry is reported as “completely suppressed”. As to `C#CCON=C(C(C)=NOCc1ccccc1C(=NOC)C(=O)NC)c1ccc(OCCC)cc1` [Compound 4.65], the curative action entry with Plasmopara viticola is “complete curative action”.

With `CCCCOc1ccc(C(=NOC)C(C)=NOCc2ccccc2C(=COC)C(=O)OC)c(F)c1` (single isomer, unassigned) [Compound 1.71A], the curative action entry in the data set on Plasmopara viticola is given as “complete curative action”.

As to `COC=C(C(=O)OC)c1ccccc1CON=C(C)C(=NOC)c1ccc(OC)cc1C` (single isomer, unassigned) [Compound 1.78], the curative action result in the data set on Plasmopara viticola was “complete curative action”.

Turning to `CCCCOc1ccc(C(=NOC)C(C)=NOCc2ccccc2C(=COC)C(=O)OC)cc1` (mixture of isomers) [Compound 1.33], in the data set on Plasmopara viticola, the curative action result was “complete curative action”. In addition, in the data set on Phytophthora infestans, the suppression of infestation result is “completely suppressed”. On to `CNC(=O)C(=NOC)c1ccccc1CON=C(C)C(=NOC)c1ccc(OCC(F)(F)F)cc1` [Compound 3.43], for which the curative action entry in the data set on Plasmopara viticola is “complete curative action”. Regarding `COC=C(C(=O)OC)c1ccccc1CON=C(C)C(=NOC)c1ccc(OCC2CC2(Cl)Cl)c(Cl)c1` (single isomer, unassigned) [Compound 1.20], the suppression of infestation entry in the data set with Phytophthora infestans is “completely suppressed”. On to `CCCOc1ccc(C(=NOCC)C(C)=NOCc2ccccc2C(=NOC)C(=O)OC)cc1` [Compound 4.58], for which the curative action entry in the data set with Plasmopara viticola is reported as “complete curative action”. For the compound `COC=C(C(=O)OC)c1ccccc1CON=C(C)C(=NOCC=C(Cl)Cl)c1ccc(OC)cc1` [Compound 4.3], the curative action result in the data set on Plasmopara viticola is “complete curative action”. For the same compound, in the data set with Phytophthora infestans, the suppression of infestation result is “completely suppressed”. `COC=C(C(=O)OC)c1ccccc1CON=C(C)C(=NOC)c1cc(F)c(OCC2CC2(Cl)Cl)cc1F` (stereo not drawn) [Compound 1.13, (2-{2-[4-(2,2-Dichloro-cyclopropylmethoxy)-2,5-difluoro-phenyl]-2-methoxyimino-1-methyl-ethylideneaminooxymethyl}-phenyl)-3-methoxy-acrylic acid methyl ester]: in the data set with Plasmopara viticola, the curative action entry is “complete curative action”. Besides, in the data set on Phytophthora infestans, the suppression of infestation entry is “completely suppressed”. For `COC=C(C(=O)OC)c1ccccc1CON=C(C)C(=NOC)c1ccc(OCC2CC2(Cl)Cl)c(F)c1` (stereo not drawn) [Compound 1.3, (2-{2-[4-(2,2-Dichloro-cyclopropylmethoxy)-3-fluoro-phenyl]-2-methoxyimino-1-methyl-ethylideneaminooxymethyl}phenyl)-3-methoxy-acrylic acid methyl ester], in that order: “complete curative action” and “completely suppressed”.
